We go through 11 compounds from ChEMBL document CHEMBL1201862, “PubChem BioAssay data set” (2004).

Structures are written as SMILES.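 Each compound was tested at five concentrations against cells in 96-well plates for 48 hours. At the GI50, growth is halved.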 Activity calls are given as the source filed them. Cut-off read from the data, not from the text of the source: active = GI50 up to about 1.1 µM and inactive = higher.

What all share (experiment): growth of human tumour cells (NCI), 48 h
Assay [1] has as its system SF-539.
Assay [2] concerns K562.
Assay [3] concerns NCI/ADR-RES.
The test system of assay [4] is OVCAR-8.
Assay [5] relates to OVCAR-3.
Assay [6] concerns MOLT-4.
The subject of assay [7] is ACHN.
The test system of assay [8] is SK-MEL-5.
Assay [9] has as its system MDA-MB-231.
In assay [10] the test system is HL-60.
Assay [11] relates to SF-295.
In assay [12] the test system is EKVX.
Assay [13] relates to NCI-H226.
The test system of assay [14] is PC-3.
The test system of assay [15] is SR.
The subject of assay [16] is SW-620.
In assay [17] the test system is MDA-MB-435.
Assay [18] concerns A498.
The subject of assay [19] is CCRF-CEM.
Assay [20] deals with NCI-H460.

With `O=C(O)C/C(=C\c1ccco1)C(=O)O`, the GI50 in assay [1], in assay [2], in assay [3], in assay [4], in [5] and in assay [6] was > 100 µM (inactive) throughout. In addition, the GI50 in assay [7], in assay [8], in assay [9], in [10], in [11] and in assay [12] was > 100 µM (inactive) each time. For the same compound, the GI50 in [13], in assay [14], in assay [15], in assay [16], in assay [17] and in [18] was > 100 µM (inactive) throughout.
As for `CNC(c1ccncc1)C(NC)c1ccncc1` (stereo not drawn), the GI50 in assay [2], in assay [3], in assay [19], in [4], in [5] and in assay [6] was > 100 µM (inactive) in each case. Also, the GI50 in assay [7], in [8], in assay [9], in [10], in [11] and in assay [12] was > 100 µM (inactive) each time. The GI50 in [13], in [14], in [15], in assay [16], in [17] and in assay [18] was > 100 µM (inactive) in each case.
`O=C1c2ccccc2NC(=S)[C@@H]2CCCN12`: the GI50 in [1], in [2], in assay [3], in assay [19], in assay [4] and in assay [5] was > 100 µM (inactive) in each case. In addition, the GI50 in assay [6], in assay [7], in assay [8], in assay [9], in assay [11] and in assay [12] was > 100 µM (inactive) in each case. Besides, the GI50 in assay [13], in assay [20], in assay [14], in assay [15], in [16] and in assay [17] was > 100 µM (inactive) throughout. The GI50 in assay [18] is > 100 µM (inactive).
Turning to `N#CCCN(CCC#N)c1ccc(C(=N/c2ccc(F)cc2)/N=N/c2ccc(Cl)cc2)cc1`, the GI50 in assay [1], in assay [2], in [3], in [19], in [4] and in assay [5] was > 100 µM (inactive) each time. Moreover, the GI50 in assay [6], in assay [7], in assay [8], in [9], in assay [11] and in assay [12] was > 100 µM (inactive) in each case. The GI50 in assay [13], in assay [20], in assay [14], in assay [15], in [16] and in assay [17] was > 100 µM (inactive) each time. The GI50 in assay [18] is > 100 µM (inactive).
Regarding `O=C1Nc2ccccc2S/C1=C\c1ccc(C(F)(F)F)cc1`, the GI50 in [1], in assay [2], in [3], in assay [4], in [5] and in assay [6] was > 100 µM (inactive) throughout. Moreover, the GI50 is > 100 µM (inactive) in assay [7]; > 100 µM (inactive) in assay [8]; > 100 µM (inactive) in [9]; > 100 µM (inactive) in assay [10]; > 100 µM (inactive) in assay [11]; 55.1 µM (inactive) in assay [12]. In addition, the GI50 in [13], in assay [20], in assay [14], in assay [15], in assay [16] and in [17] was > 100 µM (inactive) throughout. The GI50 in assay [18] is > 100 µM (inactive).
For `N#Cc1c(-c2ccc([N+](=O)[O-])cc2)c2c([nH]c1=O)-c1ccccc1CCC2`, the GI50 in [1] was 52.7 µM (inactive); in assay [2] it was 36.7 µM (inactive); in assay [3], 50.5 µM (inactive); in [4] it was 55.3 µM (inactive); in [5] it was 31.8 µM (inactive); in assay [6], 39.4 µM (inactive). Further, the GI50 is 37.5 µM (inactive) in assay [7]; 51.9 µM (inactive) in assay [8]; > 100 µM (inactive) in assay [9]; 43 µM (inactive) in [10]; 37.2 µM (inactive) in assay [11]; > 100 µM (inactive) in [12]. The GI50 was 44 µM (inactive) in assay [13]; 51.1 µM (inactive) in assay [20]; 80.2 µM (inactive) in assay [14]; 29.6 µM (inactive) in assay [15]; 63.5 µM (inactive) in [16]; 67.1 µM (inactive) in assay [17]. Also, in assay [18], the GI50 was 46.3 µM (inactive).
For `CS(=O)(=O)OCCN1CCC2(CC1)SSC1(CCN(CCOS(C)(=O)=O)CC1)S2`, the GI50 was 27.7 µM (inactive) in assay [1]; 64.4 µM (inactive) in [2]; > 100 µM (inactive) in [3]; > 100 µM (inactive) in assay [4]; 29.2 µM (inactive) in assay [5]; 31.8 µM (inactive) in assay [6]. Further, the GI50 in [7] was 33.5 µM (inactive); in [8] it was 16.1 µM (inactive); in [9], > 100 µM (inactive); in assay [10], 24.3 µM (inactive); in [11], 45.4 µM (inactive); in assay [20] it was 34.8 µM (inactive). In addition, the GI50 is 44.7 µM (inactive) in assay [14]; 14.1 µM (inactive) in assay [15]; 42.3 µM (inactive) in [16]; > 100 µM (inactive) in assay [17]; 0.352 µM (active) in [18].
For the compound `[O-][n+]1cn[n+]([O-])c2ccccc21`, the GI50 in [1] is 22.3 µM (inactive); in assay [2], 6.95 µM (inactive); in assay [3], 23.5 µM (inactive); in assay [19], 3.46 µM (inactive); in assay [4], 18.9 µM (inactive); in [6], 2.91 µM (inactive). Moreover, the GI50 in [7] is 12.2 µM (inactive); in assay [8], > 10 µM (inactive); in [9], 14.3 µM (inactive); in assay [10], 5.04 µM (inactive); in assay [11], 30.3 µM (inactive); in assay [12] it was 33 µM (inactive). Further, the GI50 in assay [13] was > 100 µM (inactive); in assay [14], 11.7 µM (inactive); in assay [15], 18.4 µM (inactive); in assay [16] it was 6.82 µM (inactive); in assay [17], 67.3 µM (inactive); in assay [18], 61.4 µM (inactive).
As for `Nc1ccc(CCSSCCc2ccc(N)cc2)cc1`, the GI50 was 24.9 µM (inactive) in assay [1]; 6.4 µM (inactive) in assay [2]; 23.2 µM (inactive) in assay [3]; 1.38 µM (inactive) in assay [19]; 28 µM (inactive) in assay [4]; 31.6 µM (inactive) in [5]. The GI50 is 1.81 µM (inactive) in assay [6]; 29.6 µM (inactive) in [7]; 19.8 µM (inactive) in assay [8]; 39.3 µM (inactive) in assay [9]; 39 µM (inactive) in assay [11]; 53.5 µM (inactive) in [12]. The GI50 is 27.5 µM (inactive) in [13]; 25.7 µM (inactive) in assay [20]; 29.4 µM (inactive) in [14]; 0.991 µM (active) in [15]; 30 µM (inactive) in [16]; 26.9 µM (inactive) in [17]. Besides, the GI50 in [18] is 32.1 µM (inactive).
Regarding `O=C1C2CC=CCC2C(=O)N1n1c(Cc2ccc(Cl)cc2)n[nH]c1=O` (stereo not drawn), the GI50 in [2], in assay [3], in assay [19], in assay [4], in assay [5] and in assay [6] was > 100 µM (inactive) throughout. Moreover, the GI50 in assay [7], in [8], in assay [9], in assay [10], in assay [11] and in assay [12] was > 100 µM (inactive) throughout. The GI50 in assay [13], in assay [14], in assay [15], in assay [16], in [17] and in [18] was > 100 µM (inactive) in each case.
For the compound `C=CCSC1=N/C(=C\c2ccc(OC)cc2)C(=O)N1CC=C`, the GI50 in assay [1] is 36.6 µM (inactive); in assay [2], 23.7 µM (inactive); in [3], 27.6 µM (inactive); in assay [19] it was 16.6 µM (inactive); in assay [4], 36.2 µM (inactive); in assay [5], 45.9 µM (inactive). Also, the GI50 was 13.7 µM (inactive) in assay [6]; 33.3 µM (inactive) in assay [7]; 15.6 µM (inactive) in assay [8]; 37.2 µM (inactive) in [9]; 16 µM (inactive) in assay [10]; 35.3 µM (inactive) in [11]. In addition, the GI50 in assay [12] was 19.7 µM (inactive); in [20], 27.6 µM (inactive); in [14], 20.8 µM (inactive); in assay [15], 13.5 µM (inactive); in assay [16], 35.2 µM (inactive); in [17], 26.4 µM (inactive). Moreover, the GI50 in assay [18] was 14.9 µM (inactive).
